The values below come from PMC5004175, “Abcb1 in Pigs: Molecular cloning, tissues distribution, functional analysis, and its effect on pharmacokinetics of enrofloxacin” (Scientific Reports, 2016).

Read-outs that look alike come from different tables or passages of the source.

As a reminder, the Papp B→A is the apparent permeability from the basolateral to the apical side of a cell layer. What is called Papp A→B is how fast a substance crosses the layer from the apical side. One may read the Cmax as the peak of the concentration-time curve. Broadly, the Tmax is the time from dosing to the highest level.

In series [1] the test system is P-gp. Description: P-gp inhibition (data not shown).
Series [2] has as its system porcine P-gp. Description: Bidirectional transport assay of enrofloxacin in MDCK-pAbcb1 cell monolayers. In kind it is in vitro ADME, pig. As to the method: (§1) Transport assays were carried out as described[45] with minor modifications. MDCK and MDCK-pAbcb1 with a density of 6.6 × 10^4 cells/insert were seeded on a polyethylene terephthalate membrane insert (Millicell cell culture inserts, 1.0 μm pore size, 6.5 mm diameter) in 24-well culture plates. […] Samples were stored at −20 °C. All experiments were conducted in triplicate.
(§2) In brief, plasma was thawed at room temperature and centrifuged at 2,000 × g for 5 min. […] The organic phase was evaporated to dryness under a nitrogen stream and residue was resuspended with mobile phase solution. The samples from the transport assays were directly evaporated to dryness under a nitrogen stream and 40 μL of the mobile phase solution was used to concentrate the samples for 5 times. Twenty microliters of the mixture were injected into the HPLC column (Kromasil C18 columns, […] particle size, 250 × 4.6 mm). The mobile phase composition was 0.1 M phosphoric acid (adjusted pH to 3.5 with triethylamine)/acetonitrile (84:16, v/v) and the flow rate of mobile phase was set to 0.85 mL/min. UV absorbance was measured at 278 nm.
(§3) Apparent permeability coefficients (Papp) were calculated using the following equation: Papp = (dQ/dt)/(A × C0), where A is the area of filter membrane, C0 is the initial concentration of the test drug, dQ is the amount of transported drug, and dt is time elapsed. The efflux ratio (ER) was calculated from (Papp B → A)/(Papp A → B)[59]. Where Papp B → A and Papp A → B are BL to AP and AP to BL apparent permeability coefficients, respectively. The net efflux ratio was calculated using the following equation: Net efflux ratio = efflux ratio in MDCK-pAbcb1/efflux ratio in MDCK.

A short description of series [3]: Bidirectional transport assay of enrofloxacin in MDCK parental cell monolayers. In kind it is in vitro ADME, canine. The note with it: dog, MDCK cells, enrofloxacin 12 μM alone. As to the method: as §1, §2, §3
A short description of series [4]: in vivo. Conditions: pig, plasma, po, 10 mg/kg.
A short description of series [5]: Pharmacokinetics of oral enrofloxacin in healthy pigs with/without verapamil. The note with it: enrofloxacin 10 mg/kg po alone, mean ± SEM, n = 4.
Series [6] is described as follows: Tolerability of P-gp inhibitor pre-treatment in piglets. It counts as in vivo. The note with it: piglets treated with the P-gp inhibitor; dose not given.
Series [7] deals with porcine P-gp. The note with it: 5 μM Rho123, during 2 h, p < 0.01.

As for `COc1ccc2cc3[n+](cc2c1OC)CCc1cc2c(cc1-3)OCO2` [Berberine], the “Inhibition of P-gp” value in series [1] was “can significantly inhibit P-gp”.
In the case of `CCN1CCN(c2cc3c(cc2F)c(=O)c(C(=O)O)cn3C2CC2)CC1` [ENRO, enrofloxacin], the Net efflux ratio in series [2] (enrofloxacin 12 μM alone, efflux ratio in MDCK-pAbcb1 / efflux ratio in MDCK) was 2.48. Also, in series [2] (pig, MDCK-MDR1, MDCK-pAbcb1 cells, enrofloxacin 12 μM alone, 120 min, mean ± SEM, n = 3), the Papp B→A at 120 min, 12 μM was determined as 19.9 ± 1.57 ×10⁻⁶ cm/s. The efflux ratio at 120 min, 12 μM in series [2] (pig, MDCK-pAbcb1, MDCK-pAbcb1 cells, enrofloxacin 12 μM alone, Papp B→A / Papp A→B, read-out: Efflux ratio) stood at 2.58 ± 0.25. The efflux ratio at 120 min, 12 μM in series [2] (pig, MDCK-pAbcb1, enrofloxacin 12 μM alone, efflux ratio in MDCK-pAbcb1 / efflux ratio in MDCK, read-out: Net efflux ratio) is over 2. In series [2] (pig, MDCK-pAbcb1 cells, enrofloxacin 12 μM alone, 120 min, mean ± SEM, n = 3), this compound had a Papp A→B at 120 min, 12 μM of 7.78 ± 1.28 ×10⁻⁶ cm/s. Moreover, in series [3] (120 min, mean ± SEM, n = 3), the Papp A→B at 120 min, 12 μM was determined as 12.3 ± 0.59 ×10⁻⁶ cm/s and the Papp B→A at 120 min, 12 μM amounted to 12.9 ± 1.65 ×10⁻⁶ cm/s. Moreover, the efflux ratio at 120 min, 12 μM in series [3] (Papp B→A / Papp A→B) was found to be 1.04 ± 0.11. In series [4], the concentration peaked (Cmax) at 3390 ± 120 ng/mL, the Tmax came to 2.01 ± 0.09 h and the k el was 7.78e-05 s⁻¹. Besides, the “AUC (area under the plasma concentration-time curve)” value in series [5] is 13.57 ± 0.96 (μg/mL)·h. In series [5] (plasma), the “CL/F (Clearance/F)” value is on record as 0.47 ± 0.01 (mg/kg/h)/(μg/mL), the “Ka (absorption rate constant)” value is 0.82 ± 0.11 h⁻¹, the “T1/2ka (absorption half-life)” value came out at 52.8 ± 12 min and the “T1/2ke (elimination half-life)” value is reported as 2.50 ± 0.23 h. Further, the “V/F (volume of distribution/F)” value in series [5] (plasma) is listed as 1.69 ± 0.18 (mg/kg)/(μg/mL).
Regarding `C/C=C/C[C@@H](C)C(=O)[C@H]1C(=O)N[C@@H](C(C)C)C(=O)N(C)CC(=O)N(C)[C@@H](CC(C)C)C(=O)N[C@@H](C(C)C)C(=O)N(C)[C@@H](CC(C)C)C(=O)N[C@@H](C)C(=O)N[C@H](C)C(=O)N(C)[C@@H](CC(C)C)C(=O)N(C)[C@@H](CC(C)C)C(=O)N(C)[C@@H](C(C)C)C(=O)N1C` [PSC-833], in series [6], the “Adverse effect in treated piglets” value is “some animals began vomiting”.
With `COC(=O)c1ccccc1-c1c2ccc(=N)cc-2oc2cc(N)ccc12` [Rho123, rhodamine 123], the “Accumulation of Rho123 in MDCK-pAbcb1 cells compared with MDCK cells” value in series [7] is on record as “accumulated less Rho123 than MDCK cells”.
